Results reported in patent publication US20050238580A1 (priority 2002, published 2005).

How the values were obtained:
Assay type in all cases: in vivo
[1] = target: T1, intestinal lactase (Homo sapiens, UniProt P09848); test: Xylose in urine of human volunteers after oral 4-galactosyl-xylose, evaluated by gas chromatography; details: 0.25 g oral
T1 construct: from tissue; host or cells: small-intestinal mucous membrane of living adult human volunteers (in vivo)
Excerpt: Excretion of xylose in urine after administration of 0.25 g of 4-galactose-xylose to subjects with lactose tolerance, and its reduction in hypolactasic individuals with lactose intolerance is likewise observed by the evaluation technique of xylose different from the colorimetric reaction with fluoroglucinol. This has been shown by administering 0.25 g of 4-galactosyl-xylose to a volunteer with lactose tolerance [individual 1 (also studied in Example 3), Example 15] on one hand, and on the other hand, to a volunteer with lactose intolerance having an intense intestinal lactase deficiency [individual 12 (also studied in Example 12), Example 16], and evaluating xylose by gas chromatography in the total urine collected 3 hours after the intake of the disaccharide with a chromatograph equipped with a flame ionization detector and a 12 m long glass spiral column with an inside diameter of 0.2 mm and a thickness of 0.3 μm. The presence of xylose in urine was detected in its trimethylsilyl derivative form. For this purpose the urine sample was lyophilized and dissolved in 20 μl of pyridine containing 1 mM of benzyl-β-D-xylopyranoside as an internal reference. Then another 20 μl of N-trimethylsilyl imidazole were added as a sililating agent. The mixture was treated with ultrasound for one minute and heated at 60° C. for 30 minutes. Then 1-2 μl of the sample was injected into the gas chromatograph. The temperature of the injector and the detector used was 250° C. and the temperature gradient in the column was the following: 2 minutes at 180° C. and a 5° C. increase per minute until 250° C. was reached. This temperature was maintained for 15 minutes. The concentration of xylose in each sample was calculated from the areas of the peaks corresponding to the chromatograms. The results of these experiments are compiled in FIG. 7, wherein the chromatograms corresponding to the samples of basal urine and of urine taken during 3 hours from an individual with lactose tolerance and an individual with lactose intolerance are shown. […]

[2] = target: T1, intestinal lactase; test: Xylose in blood plasma of human volunteers after oral 4-galactosyl-xylose, colorimetric titration with fluoroglucinol
Method: Oral administration of 3 g of 4-galactosyl-xylose to adult human volunteers with lactose tolerance gave rise to the gradual presence of xylose in blood plasma titrated calorimetrically with fluoroglucinol, that reached a maximum about 2 hours after the intake of the disaccharide. Oral administration of the same amount of 4-galactosyl-xylose to an adult human volunteer with lactose intolerance diagnosed as hypolactasic produced a significant reduction in the amount of xylose evaluated in blood plasma of this individual two hours after the intake of the disaccharide.
The evaluation of xylose in blood after the oral administration of 4-galactosyl-xylose permits non-invasive diagnosis of intestinal lactase deficiency. This has been shown by administering 3 g of 4-galactosyl-xylose to two volunteers with lactose tolerance [individual 1, Example 17 and individual 2, Example 18 (these individuals were also studied in Examples 3 to 6)] and to the hypolactasic individual 12 with lactose intolerance [Example 19 (this individual was also studied in examples 12 and 15]). Xylose was titrated colorimetrically with fluoroglucinol in blood plasma of blood samples obtained from these individuals prior to the intake of the disaccharide and after the intake thereof at approximately 1 hour intervals for 6 hours: in the hypolactasic individual a basal blood sample and another blood sample 2 hours after the intake of the 4-galactosyl-xylose disaccharide were taken. […] In view of the amount of xylose detected in the individual with lactose intolerance 2 hours after the intake of 4-galactosyl-xylose, 0.48 μg/100 μl of plasma and the sensitivity of the titration (minimum detection limit of xylose with fluoroglucinol of […]), the minimum volume of serum or plasma to reliably make the measurement is estimated to be 50 μl, which is equivalent to 0.2 ml of blood (2 to 3 drops).

[3] = Gastrointestinal tolerability of the oral intake of 4-galactosyl-xylose in adult human volunteers

T1 sequence (P09848 869-1927): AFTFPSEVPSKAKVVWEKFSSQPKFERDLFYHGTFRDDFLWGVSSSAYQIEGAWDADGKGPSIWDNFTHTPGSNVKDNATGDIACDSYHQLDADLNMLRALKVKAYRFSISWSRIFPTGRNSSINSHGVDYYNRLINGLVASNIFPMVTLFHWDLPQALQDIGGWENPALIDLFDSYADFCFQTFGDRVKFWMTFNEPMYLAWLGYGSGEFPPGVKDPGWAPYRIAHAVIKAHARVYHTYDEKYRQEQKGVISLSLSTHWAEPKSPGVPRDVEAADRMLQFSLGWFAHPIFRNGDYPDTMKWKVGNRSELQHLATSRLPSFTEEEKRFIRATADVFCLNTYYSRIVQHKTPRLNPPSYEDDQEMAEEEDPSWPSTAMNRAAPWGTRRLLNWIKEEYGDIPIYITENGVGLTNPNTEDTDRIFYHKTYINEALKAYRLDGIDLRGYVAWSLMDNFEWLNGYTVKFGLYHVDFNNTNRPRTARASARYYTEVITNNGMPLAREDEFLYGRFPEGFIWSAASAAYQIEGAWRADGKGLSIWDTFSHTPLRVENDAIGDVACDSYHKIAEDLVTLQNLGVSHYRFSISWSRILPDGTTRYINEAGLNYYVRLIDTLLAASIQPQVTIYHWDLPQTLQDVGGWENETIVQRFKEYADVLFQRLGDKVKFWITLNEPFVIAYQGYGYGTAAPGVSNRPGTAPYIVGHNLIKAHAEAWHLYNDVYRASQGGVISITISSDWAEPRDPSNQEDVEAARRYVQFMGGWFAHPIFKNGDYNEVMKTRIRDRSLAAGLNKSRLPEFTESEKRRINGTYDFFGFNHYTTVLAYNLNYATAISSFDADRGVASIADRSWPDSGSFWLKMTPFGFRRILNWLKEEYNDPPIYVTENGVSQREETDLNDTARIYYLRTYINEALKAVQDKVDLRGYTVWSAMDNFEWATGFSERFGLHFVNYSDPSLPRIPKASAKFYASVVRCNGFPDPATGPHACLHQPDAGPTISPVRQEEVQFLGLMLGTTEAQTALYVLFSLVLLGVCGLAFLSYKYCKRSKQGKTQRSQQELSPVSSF

reduction of xylose in urine, individual 12 versus individual 1 ([1]; urine of 3 hours): 92% | reduction of xylose in plasma, individual 12 versus individual 1 ([2]; 3 g oral, 2 hours): 72% | reduction of xylose in plasma, individual 12 versus individual 2 ([2]; 3 g oral, 2 hours): 75% | xylose in blood plasma 2 hours after intake ([2]; hypolactasic individual 12, 3 g oral): 0.48 μg/100 μl of plasma
SMILES: OCC1O[C@@H](O[C@@H]2COC(O)C(O)[C@H]2O)C(O)[C@@H](O)[C@H]1O (stereo partly drawn)
total amount of xylose in urine of 3 hours ([1]; hypolactasic individual 12 with lactose intolerance): 2.1 mg | total xylose in urine of 3 hours ([1]; individual 1 with lactose tolerance): 25.2 mg | xylose in blood plasma in a similar period of time (2 hours) ([2]; individual 1 with lactose tolerance, 3 g oral): 1.72 μg/100 ml of plasma | xylose in blood plasma in a similar period of time (2 hours) ([2]; individual 2 with lactose tolerance, 3 g oral): 1.95 μg/100 ml of plasma | xylose in blood plasma after 6 hours ([2]; individuals 1 and 2 with lactose tolerance, 3 g oral): undetectable | gastrointestinal discomfort or disorders ([3]; 8 adult volunteers with lactose tolerance, 0.25 g oral): did not cause any gastrointestinal discomfort or disorder | gastrointestinal discomfort or disorders ([3]; individual 1 with lactose tolerance, 1 g oral): did not cause any gastrointestinal discomfort or disorders | gastrointestinal discomfort or disorders ([3]; individual 12 with lactose intolerance and two individuals with lactose tolerance, 3 g oral): did not result in any gastrointestinal discomfort or disorder | gastrointestinal discomfort or disorders ([3]; individual 13, allergy to milk components, 0.25 g oral): did not cause any gastrointestinal discomfort or disorder | gastrointestinal discomfort or disorders ([3]; individuals 1 and 2 with lactose tolerance, 0.25 g, 0.5 g and 3 g oral): did not cause any gastrointestinal discomfort or any disorder | gastrointestinal discomfort or disorders ([3]; individuals 12 and 5 with lactose intolerance, 0.25 g oral): did not cause any gastrointestinal discomfort or disorders
